Assay results taken from ChEMBL document CHEMBL2073929, “Interactions of rifamycin SV and rifampicin with organic anion uptake systems of human liver” (Hepatology, 2002).

T1: Solute carrier organic anion transporter family member 1B3 (OATP1B3) (Homo sapiens, UniProt Q9NPD5)
T1 sequence (Q9NPD5 whole entry): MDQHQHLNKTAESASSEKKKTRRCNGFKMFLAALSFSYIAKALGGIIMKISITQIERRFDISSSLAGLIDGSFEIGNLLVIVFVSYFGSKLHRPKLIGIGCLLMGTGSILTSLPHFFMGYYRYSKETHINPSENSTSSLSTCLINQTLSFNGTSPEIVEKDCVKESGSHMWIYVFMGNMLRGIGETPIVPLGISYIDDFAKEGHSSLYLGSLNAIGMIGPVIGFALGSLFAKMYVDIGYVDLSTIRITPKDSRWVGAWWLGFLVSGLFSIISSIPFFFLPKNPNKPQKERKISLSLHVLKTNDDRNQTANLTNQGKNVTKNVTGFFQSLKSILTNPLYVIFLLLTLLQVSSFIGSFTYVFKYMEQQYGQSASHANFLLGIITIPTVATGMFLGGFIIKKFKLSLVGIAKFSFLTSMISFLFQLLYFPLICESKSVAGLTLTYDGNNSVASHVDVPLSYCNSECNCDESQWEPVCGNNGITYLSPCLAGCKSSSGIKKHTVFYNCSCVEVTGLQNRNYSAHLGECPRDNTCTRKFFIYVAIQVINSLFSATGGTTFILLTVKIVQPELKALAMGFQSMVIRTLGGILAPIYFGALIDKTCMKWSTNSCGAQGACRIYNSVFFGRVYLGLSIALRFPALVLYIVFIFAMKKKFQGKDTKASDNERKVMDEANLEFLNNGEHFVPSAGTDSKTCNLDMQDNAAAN

T2: Solute carrier organic anion transporter family member 1A2 (Homo sapiens, UniProt P46721)
T2 sequence (P46721 whole entry): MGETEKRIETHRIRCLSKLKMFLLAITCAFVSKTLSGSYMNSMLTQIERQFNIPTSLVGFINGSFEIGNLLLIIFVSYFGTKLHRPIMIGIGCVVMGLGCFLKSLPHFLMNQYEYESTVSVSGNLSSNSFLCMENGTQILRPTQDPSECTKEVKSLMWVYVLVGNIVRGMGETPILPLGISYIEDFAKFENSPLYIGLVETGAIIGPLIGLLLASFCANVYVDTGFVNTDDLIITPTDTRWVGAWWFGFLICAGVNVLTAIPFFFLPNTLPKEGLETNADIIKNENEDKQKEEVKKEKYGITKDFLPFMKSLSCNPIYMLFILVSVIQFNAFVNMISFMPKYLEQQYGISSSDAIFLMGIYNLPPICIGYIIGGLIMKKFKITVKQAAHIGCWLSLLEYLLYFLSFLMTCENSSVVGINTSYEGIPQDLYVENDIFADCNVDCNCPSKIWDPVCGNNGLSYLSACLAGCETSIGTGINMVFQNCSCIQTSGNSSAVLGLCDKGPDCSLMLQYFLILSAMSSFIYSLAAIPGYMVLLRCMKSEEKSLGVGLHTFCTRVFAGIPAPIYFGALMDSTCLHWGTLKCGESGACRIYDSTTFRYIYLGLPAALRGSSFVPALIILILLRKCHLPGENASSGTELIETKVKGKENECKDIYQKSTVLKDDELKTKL

T3: Solute carrier organic anion transporter family member 2B1 (Homo sapiens, UniProt O94956)
T3 sequence (O94956 whole entry): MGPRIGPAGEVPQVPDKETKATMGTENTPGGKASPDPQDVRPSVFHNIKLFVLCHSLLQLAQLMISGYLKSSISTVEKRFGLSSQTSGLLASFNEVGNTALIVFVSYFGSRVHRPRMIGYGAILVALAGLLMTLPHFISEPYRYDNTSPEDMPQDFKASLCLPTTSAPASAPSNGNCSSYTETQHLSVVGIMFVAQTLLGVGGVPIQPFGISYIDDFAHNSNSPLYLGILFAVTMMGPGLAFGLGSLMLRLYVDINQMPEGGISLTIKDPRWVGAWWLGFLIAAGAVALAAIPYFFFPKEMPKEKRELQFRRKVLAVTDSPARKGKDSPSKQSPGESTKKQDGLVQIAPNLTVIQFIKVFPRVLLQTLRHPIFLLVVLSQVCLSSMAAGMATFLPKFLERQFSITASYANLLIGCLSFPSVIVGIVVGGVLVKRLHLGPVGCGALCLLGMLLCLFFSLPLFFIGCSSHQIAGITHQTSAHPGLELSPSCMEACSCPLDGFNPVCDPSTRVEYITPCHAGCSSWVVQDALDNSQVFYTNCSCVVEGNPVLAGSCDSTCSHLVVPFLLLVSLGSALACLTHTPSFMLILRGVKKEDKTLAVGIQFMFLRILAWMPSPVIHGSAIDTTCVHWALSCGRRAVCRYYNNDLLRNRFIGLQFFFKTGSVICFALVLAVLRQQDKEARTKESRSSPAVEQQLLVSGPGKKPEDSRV

T4: Solute carrier organic anion transporter family member 1B1 (Homo sapiens, UniProt Q9Y6L6)
T4 sequence (Q9Y6L6 whole entry): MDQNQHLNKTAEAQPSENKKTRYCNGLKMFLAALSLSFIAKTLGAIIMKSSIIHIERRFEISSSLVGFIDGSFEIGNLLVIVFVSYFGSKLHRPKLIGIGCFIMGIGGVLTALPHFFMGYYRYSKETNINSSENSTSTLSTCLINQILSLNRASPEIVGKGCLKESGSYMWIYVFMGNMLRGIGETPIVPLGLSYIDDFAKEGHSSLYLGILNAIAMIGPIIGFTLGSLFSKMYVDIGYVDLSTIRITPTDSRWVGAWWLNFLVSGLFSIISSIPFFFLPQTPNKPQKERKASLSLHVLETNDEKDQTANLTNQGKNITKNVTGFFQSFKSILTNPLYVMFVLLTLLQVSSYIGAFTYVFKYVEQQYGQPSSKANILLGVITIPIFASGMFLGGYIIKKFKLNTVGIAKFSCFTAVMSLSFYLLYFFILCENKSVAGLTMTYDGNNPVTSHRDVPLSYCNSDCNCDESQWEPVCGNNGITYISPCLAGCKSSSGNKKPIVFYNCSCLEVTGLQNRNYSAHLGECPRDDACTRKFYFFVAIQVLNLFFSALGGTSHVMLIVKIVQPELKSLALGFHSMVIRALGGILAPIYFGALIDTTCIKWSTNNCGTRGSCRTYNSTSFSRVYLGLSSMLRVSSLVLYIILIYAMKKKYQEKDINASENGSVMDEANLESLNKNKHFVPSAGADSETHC

T5: Solute carrier organic anion transporter family member 1B3 (Homo sapiens, UniProt Q9NPD5)
T5 sequence (Q9NPD5 whole entry): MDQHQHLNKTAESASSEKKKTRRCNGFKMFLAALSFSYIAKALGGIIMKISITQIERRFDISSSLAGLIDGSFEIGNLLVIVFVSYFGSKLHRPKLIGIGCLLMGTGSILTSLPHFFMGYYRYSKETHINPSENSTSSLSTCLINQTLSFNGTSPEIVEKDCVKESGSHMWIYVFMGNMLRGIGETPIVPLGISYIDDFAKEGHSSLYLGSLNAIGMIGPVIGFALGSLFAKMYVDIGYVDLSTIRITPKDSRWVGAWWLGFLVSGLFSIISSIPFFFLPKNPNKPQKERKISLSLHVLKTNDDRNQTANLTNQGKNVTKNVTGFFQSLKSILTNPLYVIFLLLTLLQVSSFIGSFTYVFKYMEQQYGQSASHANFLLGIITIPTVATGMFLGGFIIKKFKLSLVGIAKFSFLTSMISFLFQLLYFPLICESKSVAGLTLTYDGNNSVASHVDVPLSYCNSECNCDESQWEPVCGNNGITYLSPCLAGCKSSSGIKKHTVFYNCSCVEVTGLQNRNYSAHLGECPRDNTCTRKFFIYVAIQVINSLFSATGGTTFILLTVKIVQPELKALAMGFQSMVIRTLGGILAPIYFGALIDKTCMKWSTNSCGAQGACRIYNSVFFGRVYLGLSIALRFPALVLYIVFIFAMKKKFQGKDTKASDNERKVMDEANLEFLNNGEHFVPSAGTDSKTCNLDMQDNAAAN


Columns and labels:
[1] = target: T1, Solute carrier organic anion transporter family member 1B3 (OATP1B3); test: (§1) TP_TRANSPORTER: uptake in Xenopus laevis oocytes; format: functional, cell-based, Oocyte; settings: Xenopus laevis oocytes expressing the transporter
[2] = target: T2, Solute carrier organic anion transporter family member 1A2; test: as §1; format: functional, cell-based; settings: oocyte
[3] = target: T3, Solute carrier organic anion transporter family member 2B1; test: as §1; format: functional, cell-based; settings: oocyte
[4] = target: T2, Solute carrier organic anion transporter family member 1A2; test: (§2) TP_TRANSPORTER: inhibition of BSP uptake in Xenopus laevis oocytes; format: functional, cell-based, Oocyte
[5] = target: T4, Solute carrier organic anion transporter family member 1B1; test: as §2; format: functional, cell-based, Oocyte
[6] = target: T5, Solute carrier organic anion transporter family member 1B3; test: as §2; format: functional, cell-based, Oocyte
[7] = target: T3, Solute carrier organic anion transporter family member 2B1; test: as §2; format: functional, cell-based, Oocyte
[8] = substrate: CO[C@H]1/C=C/O[C@@]2(C)Oc3c(C)c(O)c4c(O)c(c(/C=N/N5CCN(C)CC5)c(O)c4c3C2=O)NC(=O)/C(C)=C\C=C\[C@H](C)[C@H](O)[C@@H](C)[C@@H](O)[C@@H](C)[C@H](OC(C)=O)[C@@H]1C; test: as §1; format: functional, cell-based, Oocyte

Row | Ki [7] | Molecule | Km [1] | Activity [2] | Activity [3] | Ki [4] | Ki [5] | Ki [6] | Km [8]
1 | – | CO[C@H]1/C=C/O[C@@]2(C)Oc3c(C)c(O)c4c(O)c(c(/C=N/N5CCN(C)CC5)c(O)c4c3C2=O)NC(=O)/C(C)=C\C=C\[C@H](C)[C@H](O)[C@@H](C)[C@@H](O)[C@@H](C)[C@H](OC(C)=O)[C@@H]1C [RIFAMPIN] | 2.3 µM | is not a substrate [-] | is not a substrate [-] | 51 µM | 17 µM | 5 µM | –
2 | 3 µM | CO[C@H]1/C=C/O[C@@]2(C)Oc3c(C)c(O)c4c(O)c(cc(O)c4c3C2=O)NC(=O)/C(C)=C\C=C\[C@H](C)[C@H](O)[C@@H](C)[C@@H](O)[C@@H](C)[C@H](OC(C)=O)[C@@H]1C [RIFAMYCIN] | – | – | – | 11 µM | 2 µM | 3 µM | –
3 | – | Solute carrier organic anion transporter family member 1B1 (Homo sapiens) (protein) MDQNQHLNKTAEAQPSENKKTRYCNGLKMFLAALSLSFIAKTLGAIIMKSSIIHIERRFEISSSLVGFIDGSFEIGNLLVIVFVSYFGSKLHRPKLIGIGCFIMGIGGVLTALPHFFMGYYRYSKETNINSSENSTSTLSTCLINQILSLNRASPEIVGKGCLKESGSYMWIYVFMGNMLRGIGETPIVPLGLSYIDDFAKEGHSSLYLGILNAIAMIGPIIGFTLGSLFSKMYVDIGYVDLSTIRITPTDSRWVGAWWLNFLVSGLFSIISSIPFFFLPQTPNKPQKERKASLSLHVLETNDEKDQTANLTNQGKNITKNVTGFFQSFKSILTNPLYVMFVLLTLLQVSSYIGAFTYVFKYVEQQYGQPSSKANILLGVITIPIFASGMFLGGYIIKKFKLNTVGIAKFSCFTAVMSLSFYLLYFFILCENKSVAGLTMTYDGNNPVTSHRDVPLSYCNSDCNCDESQWEPVCGNNGITYISPCLAGCKSSSGNKKPIVFYNCSCLEVTGLQNRNYSAHLGECPRDDACTRKFYFFVAIQVLNLFFSALGGTSHVMLIVKIVQPELKSLALGFHSMVIRALGGILAPIYFGALIDTTCIKWSTNNCGTRGSCRTYNSTSFSRVYLGLSSMLRVSSLVLYIILIYAMKKKYQEKDINASENGSVMDEANLESLNKNKHFVPSAGADSETHC | – | – | – | – | – | – | 13 µM
